What was measured:
[1] = preparation of pool 22
HLA class II alleles = assay: ProImmune REVEAL MHC class II binding assay, summary over the seven alleles; set-up: species or system human; details: number of class II alleles for which positive binding (score >=15%) was detected
Excerpt: (§1) The highly frequent HLA class II alleles HLA-DR1 (α1*01:01;β1*01:01), HLA-DR15 (α1*01:01;β1*15:01), HLA-DR3 (α1*01:01;β1*03:01), HLA-DR4 (α1*01:01;β1*04:01), HLA-DR11 (α1*01:01;β1*11:01), HLA-DR13 (α1*01:01;β1*13:01), and HLA-DR7 (α1*01:01;β1*07:01) were selected. Each peptide was given a score relative to the positive control peptide, which is a known T-cell epitope. The score of the test peptide is reported quantitatively as a percentage of the signal generated by the positive control peptide, and the peptide is indicated as having a putative pass or fail result. Good binders are considered to be those peptides with scores >=15% of the positive control as defined by Proimmune.

HLA class I alleles = assay: ProImmune REVEAL MHC class I binding assay, summary over the seven alleles; set-up: species or system human; details: for Number of allele (b): number of class I alleles for which positive binding was detected; for Number of HLA binders (a): total number binding epitopes detected for each long peptide, seven class I alleles
Excerpt: (§2) The number of HLA class I binding registers contained in each peptide may be determined by determining the ability of the peptide to bind to a range of frequently occurring HLA class I molecules. HLA class I binding may be measured using the ProImmune REVEAL® MHC-peptide Binding Assay (ProImmune Ltd, Oxford, UK). The REVEAL™ MHC peptide-binding assay measures the ability of each peptide to stabilize the ternary MHC-peptide complex for […], HLA-A*0201, HLA¬A*0301, HLA-A*2402, HLA-B*0702, HLA-B*0801, HLA-B*3501 representative of main HLA class I supertypes. Each tested peptide is given a score relative to a pass/fail control peptide and also compared to a positive control peptide.
(§3) Detection is based on the presence or absence of the native conformation of the MHC-peptide complex. The highly frequent HLA class I alleles (HLA-A*0201, A*0301, A*1101, A*2402, B*0702, B*0801, and B*3501) were selected. Binding to MHC molecules was compared to that of a known T-cell epitope, a positive control peptide, with very strong binding properties. […] The score of the test peptide is reported quantitatively as a percentage of the signal generated by the positive control peptide, and the peptide is indicated as having a putative pass or fail result. Good binders are considered to be those peptides with scores 45% of the positive control as defined by ProImmune.

HLA-B*3501 = HLA-B*3501 (Homo sapiens, UniProt P01889, A329T/A93T/A95T/C349S/D201E/D98Y/E176V/E187L/E204Q/E69T/I218V/K202T/L119I/Q94N/R155S/R180L/S121R/S35A/S48A/T118I/V127L/V306I/V36M/Y140S/Y91F); assay: ProImmune REVEAL MHC class I binding assay of nonamers; details: score as % of positive control peptide
Excerpt: as §2, §3

HLA-A*2402 = HLA-A*2402 (Homo sapiens, UniProt P04439, D101N/D140Y/D185E/E176V/E190D/F33S/G103R/G107R/I119L/I121M/I306V/K335N/L105A/L180Q/L300P/N151K/N90K/Q86E/Q94H/R106L/R138H/R89G/T104I/T345S/V100E/W191G/Y123F); assay: as above; details: score as % of positive control peptide
Excerpt: as §2, §3

HLA-A*0201 = HLA-A*0201 (Homo sapiens, UniProt P04439, D140Y/D185E/D98H/E176V/E277Q/G131W/G231S/I119V/I121R/I166T/I218V/L300P/L318F/N151K/N90K/P208A/P217A/Q86G/Q94H/R138H/R169H/T345S); assay: as above; details: score as % of positive control peptide
Excerpt: as §2, §3

HLA-B*0801 = HLA-B*0801 (Homo sapiens, UniProt P01889, A93T/A95T/D138N/E176V/E187T/K202T/Q94N/R180D/S35A/V36M/Y33D/Y91F); assay: as above; details: score as % of positive control peptide
Excerpt: as §2, §3

HLA-B*0702 = target: T1, HLA-B*0702 (Homo sapiens, UniProt P01889); assay: as above; details: score as % of positive control peptide
T1 construct: purchased ProImmune
Excerpt: as §2, §3

HLA-A*1101 = target: T2, HLA-A*1101 (Homo sapiens, UniProt P04439, A114D/D185E/E176A/F33Y/L180Q/S129P/T187R); assay: as above; details: score as % of positive control peptide
T2 construct: purchased ProImmune
Excerpt: as §2, §3

HLA-A*0301 = target: T3, HLA-A*0301 (Homo sapiens, UniProt P04439); assay: as above; details: score as % of positive control peptide
T3 construct: purchased ProImmune
Excerpt: as §2, §3

[2] = target: T4, HLA-DR13 (α1*01:01;β1*13:01) (Homo sapiens, UniProt P01903+P01911, A100E/A169T/K41T/L162R/M171V/P40S/Q125H/Q178H/Q39Y/Q99D/R42S/S66N/W38E/Y61H); assay: ProImmune REVEAL MHC class II binding assay of long peptides; details: percentage of the signal of the positive control peptide; positive binding score >=15%
T4 construct: purchased ProImmune
T4 sequence (P01903 26-216, other chains not shown): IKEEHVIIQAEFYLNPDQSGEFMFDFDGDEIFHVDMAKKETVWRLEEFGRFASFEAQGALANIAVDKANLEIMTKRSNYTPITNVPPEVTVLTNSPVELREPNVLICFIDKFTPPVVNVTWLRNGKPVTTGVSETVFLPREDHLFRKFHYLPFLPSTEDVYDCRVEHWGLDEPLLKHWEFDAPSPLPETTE
Excerpt: The highly frequent HLA class II alleles HLA-DR1 (α1*01:01;β1*01:01), HLA-DR15 (α1*01:01;β1*15:01), HLA-DR3 (α1*01:01;β1*03:01), HLA-DR4 (α1*01:01;β1*04:01), HLA-DR11 (α1*01:01;β1*11:01), HLA-DR13 (α1*01:01;β1*13:01), and HLA-DR7 (α1*01:01;β1*07:01) were selected. Each peptide was given a score relative to the positive control peptide, which is a known T-cell epitope.

[3] = tested on: HLA-DR1 (α1*01:01;β1*01:01); assay: as above; set-up: species or system human; details: percentage of the signal of the positive control peptide; positive binding score >=15%
Excerpt: as §1

[4] = tested on: HLA-DR3 (α1*01:01;β1*03:0); assay: as above; set-up: species or system human; details: percentage of the signal of the positive control peptide; positive binding score >=15%
Excerpt: as §1

[5] = tested on: HLA-DP4 (α1*01:03;β1*04:01); assay: as above; set-up: species or system human; details: percentage of the signal of the positive control peptide; positive binding score >=15%
[6] = tested on: PBMC from chronic HBV-infected subjects; assay: IFNγ ELISpot of PBMC restimulated with individual unconjugated HBV long peptides (Example 5); assay type: cell-based, human; details: for T cell responses (IFNγ ELISpot), level and frequency of responders: HBeAg-negative inactive carriers and HBeAg-negative treated subjects, 5 μg/mL, 18 h, FIGS. 9 and 10; for T cell responses (IFNγ ELISpot) grouped by infecting HBV genotype: genotypes A, B, C & D, FIG. 11; for T cell responses (IFNγ ELISpot) grouped by ethnic background: three ethnic groups, FIG. 12
Description: One vial of PBMC from each subject (containing 1×10^7 cells) was thawed and lymphocyte numbers were determined using a Scepter™ automated handheld cell counter. PBMC were cultured in 2 mL culture medium (CM: RPMI-1640 Glutamax supplemented with 5% human AB serum) in 24 well cell culture plates at a concentration of 1×10^6 cells/mL for a total of 11 days. Cells were stimulated with a mixture of the nine HBV-derived long peptides described in Example 3.
Each peptide was used at a final concentration of 1 μg/peptide/mL. On Day 4, IL-2 and IL-15 were added to the cultures to final concentrations of 10 IU/mL and 10 ng/mL respectively. On Day 10, cells were washed twice in CM and cultured with 10 IU/mL IL-2 for 1 additional day. On Day 11, cells were washed twice in CM, counted and incorporated in a human IFNγ (interferon-gamma) ELISpot assay or intracellular cytokine staining.
Cells from short term cultures were plated in triplicate wells at 5×10^4 PBMC/well. Final antigen concentrations used were: 5 μg/mL for each individual peptides; PHA positive control: 1 μg/mL.

[7] = target: T5, HLA-DR15 (α1*01:01;β1*15:01) (Homo sapiens, UniProt P01903+P01911); assay: ProImmune REVEAL MHC class II binding assay of long peptides; details: percentage of the signal of the positive control peptide; positive binding score >=15%
T5 construct: purchased ProImmune
Excerpt: as §1

[8] = target: T6, HLA-DR7 (α1*01:01;β1*07:01) (Homo sapiens, UniProt P01903+P01911, A100R/A102G/A103Q/D57E/D86V/E43K/F76Y/K127E/L162R/M171V/P40G/Q125H/Q99D/R195Q/R33Q/R42Y/R54Q/S133A/S149N/S66F/T210M/V115G/Y107V/Y59L/Y89S); assay: as above; details: percentage of the signal of the positive control peptide; positive binding score >=15%
T6 construct: purchased ProImmune
Excerpt: as §1

Row | Molecule | dispersibility / solubility [1] | Number of allele (a) (HLA class II alleles) | Number of allele (b) (HLA class I alleles) | Number of HLA binders (a) (HLA class I alleles) | Number of nonamers having a binding score >= 45%, HLA-B*3501 (HLA-B*3501) | Number of nonamers having a binding score >= 45%, HLA-A*2402 (HLA-A*2402) | Number of nonamers having a binding score >= 45%, HLA-A*0201 (HLA-A*0201) | Number of nonamers having a binding score >= 45%, HLA-B*0801 (HLA-B*0801) | Number of nonamers having a binding score >= 45%, HLA-B*0702 (HLA-B*0702) | Number of nonamers having a binding score >= 45%, HLA-A*1101 (HLA-A*1101) | Number of nonamers having a binding score >= 45%, HLA-A*0301 (HLA-A*0301) | binding score, HLA-DR13 (α1*01:01;β1*13:01) [2] [%] | binding score, HLA-DR1 (α1*01:01;β1*01:01) [3] [%] | binding score, HLA-DR3 (α1*01:01;β1*03:0) [4] [%] | binding score, HLA-DP4 (α1*01:03;β1*04:01) [5] [%] | T cell responses (IFNγ ELISpot), level and frequency of responders [6] | T cell responses (IFNγ ELISpot) grouped by infecting HBV genotype [6] | T cell responses (IFNγ ELISpot) grouped by ethnic background [6] | binding score, HLA-DR15 (α1*01:01;β1*15:01) [7] [%] | binding score, HLA-DR7 (α1*01:01;β1*07:01) [8] [%]
1 | CC[C@H](C)[C@H](NC(=O)[C@H](Cc1ccccc1)NC(=O)[C@H](CC(C)C)NC(=O)[C@H](Cc1ccccc1)NC(=O)[C@@H](NC(=O)[C@@H](NC(=O)[C@H](Cc1ccccc1)NC(=O)[C@H](CCCNC(=N)N)NC(=O)[C@H](CCCNC(=N)N)NC(=O)[C@@H](N)CC(C)C)[C@@H](C)CC)[C@@H](C)CC)C(=O)N[C@@H](CC(C)C)C(=O)N[C@@H](CC(C)C)C(=O)N[C@@H](CC(C)C)C(=O)N[C@@H](CS)C(=O)N[C@@H](CC(C)C)C(=O)N[C@H](C(=O)N[C@@H](Cc1ccccc1)C(=O)N[C@@H](CC(C)C)C(=O)N[C@@H](CC(C)C)C(=O)N[C@H](C(=O)O)C(C)C)[C@@H](C)CC [SEQ ID NO: 212] | could not be dispersed due to insolubility |  |  |  |  |  |  |  |  |  |  |  |  |  |  |  |  |  |  | 
2 | CC[C@H](C)[C@H](NC(=O)[C@H](CC(C)C)NC(=O)[C@H](CS)NC(=O)[C@H](CC(C)C)NC(=O)[C@H](CC(C)C)NC(=O)[C@H](CC(C)C)NC(=O)[C@@H](NC(=O)[C@@H](N)Cc1ccccc1)[C@@H](C)CC)C(=O)N[C@@H](Cc1ccccc1)C(=O)N[C@@H](CC(C)C)C(=O)N[C@@H](CC(C)C)C(=O)N[C@H](C(=O)N[C@@H](CC(C)C)C(=O)N[C@@H](CC(C)C)C(=O)N[C@@H](CC(=O)O)C(=O)N[C@@H](Cc1ccc(O)cc1)C(=O)N[C@@H](CCC(N)=O)C(=O)NCC(=O)N[C@@H](CCSC)C(=O)N[C@@H](CC(C)C)C(=O)O)C(C)C [SEQ ID NO: 213] | could not be dispersed due to insolubility |  |  |  |  |  |  |  |  |  |  |  |  |  |  |  |  |  |  | 
3 | NP856(K): unconjugated HBV long peptide, core 839-873 + KKK (LTFGRETVLEYLVSFGVWIRTPPAYRPPNAPILSTKKK; HBV CONSENSUS SEQUENCE) |  | 0 | 4 | 11 | 0 | 4 | 4 | 1 | 2 | 0 | 0 | 0.00 | 2.33 | 0.13 | 10.72 | highest level of responses in both patient populations and in the highest proportion of subjects | highest responses across all four genotypes A, B, C & D | highest responses across all three ethnic groups | 5.71 | 0.40
4 | NP877: unconjugated HBV long peptide, core 860-890 |  | 1 | 4 | 6 | 0 | 2 | 2 | 1 | 1 | 0 | 0 |  | 0.24 | 5.58 | 0.04 | highest level of responses in both patient populations and in the highest proportion of subjects | highest responses across all four genotypes A, B, C & D | highest responses across all three ethnic groups | 0.09 | 2.78

Source: patent publication US11918645B2, “Vaccines against hepatitis B virus” (priority 2012, dated 2024)
